# Key:
# Assay in all cases: relative viability (nuclei count vs DMSO), 5 days (fraction); higher = more cells survive
# [1] = compound: CC1=CC(=NN1)NC2=CC(=NC(=N2)/C=C/C3=CC=CC=C3)N4CCN(CC4)C + Nc1nc2[nH]cc(CCc3ccc(C(=O)N[C@@H](CCC(=O)O)C(=O)O)cc3)c2c(=O)[nH]1 [Pemetrexed] (partner 0.2 µM)
# In short: (§1)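 Lung cancer cell lines were seeded in 1536-well plates and dosed by pin tool the next day, with either a single drug or a fixed anchor-drug dose combined with five library-drug doses (not always all listed) spaced in √10 steps. Five days later, one step fixed the cells and stained their nuclei (final 0.05% Triton X-100, 1% formaldehyde, 1 ug/ml Hoechst), and nuclei were counted on 4× images. Relative viability is the nuclei count in treated wells divided by the count in vehicle wells, and each value is the median of duplicate plates.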
# Obatoclax + Crizotinib = compound: COC1=CC(c2cc3ccccc3[nH]2)=N/C1=C\c1[nH]c(C)cc1C [Obatoclax] + C[C@@H](Oc1cc(-c2cnn(C3CCNCC3)c2)cnc1N)c1c(Cl)ccc(F)c1Cl [Crizotinib] (partner 1 µM)
# In short: as §1
# Obatoclax + Luminespib = compound: COC1=CC(c2cc3ccccc3[nH]2)=N/C1=C\c1[nH]c(C)cc1C [Obatoclax] + CCNC(=O)c1noc(-c2cc(C(C)C)c(O)cc2O)c1-c1ccc(CN2CCOCC2)cc1 [Luminespib] (partner 0.01 µM)
# In short: as §1
# Obatoclax + Dasatinib = compound: COC1=CC(c2cc3ccccc3[nH]2)=N/C1=C\c1[nH]c(C)cc1C [Obatoclax] + Cc1nc(Nc2ncc(C(=O)Nc3c(C)cccc3Cl)s2)cc(N2CCN(CCO)CC2)n1 [Dasatinib] (partner 0.075 µM)
# In short: as §1
Cell Line,relative viability ([1]; first compound 0.08 µM),relative viability ([1]; first compound 0.253 µM),relative viability ([1]; first compound 0.8 µM),relative viability ([1]; first compound 2.53 µM),relative viability ([1]; first compound 8 µM),relative viability (Obatoclax + Crizotinib; first compound 0.01 µM),relative viability (Obatoclax + Crizotinib; first compound 0.03162 µM),relative viability (Obatoclax + Crizotinib; first compound 0.1 µM),relative viability (Obatoclax + Crizotinib; first compound 0.3162 µM),relative viability (Obatoclax + Crizotinib; first compound 1 µM),relative viability (Obatoclax + Luminespib; first compound 0.01 µM),relative viability (Obatoclax + Luminespib; first compound 0.03162 µM),relative viability (Obatoclax + Luminespib; first compound 0.1 µM),relative viability (Obatoclax + Luminespib; first compound 0.3162 µM),relative viability (Obatoclax + Luminespib; first compound 1 µM),relative viability (Obatoclax + Dasatinib; first compound 0.01 µM),relative viability (Obatoclax + Dasatinib; first compound 0.03162 µM),relative viability (Obatoclax + Dasatinib; first compound 0.1 µM),relative viability (Obatoclax + Dasatinib; first compound 0.3162 µM),relative viability (Obatoclax + Dasatinib; first compound 1 µM)
NCI-H596,0.468,0.5,0.456,0.408,0.228,0.987,0.898,0.946,0.655,0.565,1.04,0.852,0.859,0.611,0.574,0.618,0.475,0.464,0.502,0.394
LU99A,0.187,0.2,0.199,0.202,0.173,0.614,0.498,0.569,0.236,0.233,0.268,0.243,0.259,0.229,0.246,0.471,0.568,0.575,0.434,0.261
NCI-H2009,1.09,1.03,0.982,0.909,0.313,1.07,0.905,0.952,0.355,0.257,0.928,0.981,0.993,0.713,0.246,0.297,0.367,0.252,0.208,0.197

# — the supplement of paper PMC10307832
